Measurements published in patent publication US20250221966A1, “RXFP1 AGONISTS” (BRISTOL-MYERS SQUIBB COMPANY, priority 2021, published 2025).

These molecules were tested against T1, human RXFP1 (Homo sapiens, UniProt Q9HBX9) (assay: RXFP1 cAMP assay (hRXFP1 HEK293 cAMP assay, HTRF)). Conditions: HEK293 cells stably expressing human RXFP1, 30 min at room temperature, read-out: cAMP hRXFP1 HEK293 Assay EC50.
T1 construct: expressed in transfected cells
T1 sequence (Q9HBX9 1-757): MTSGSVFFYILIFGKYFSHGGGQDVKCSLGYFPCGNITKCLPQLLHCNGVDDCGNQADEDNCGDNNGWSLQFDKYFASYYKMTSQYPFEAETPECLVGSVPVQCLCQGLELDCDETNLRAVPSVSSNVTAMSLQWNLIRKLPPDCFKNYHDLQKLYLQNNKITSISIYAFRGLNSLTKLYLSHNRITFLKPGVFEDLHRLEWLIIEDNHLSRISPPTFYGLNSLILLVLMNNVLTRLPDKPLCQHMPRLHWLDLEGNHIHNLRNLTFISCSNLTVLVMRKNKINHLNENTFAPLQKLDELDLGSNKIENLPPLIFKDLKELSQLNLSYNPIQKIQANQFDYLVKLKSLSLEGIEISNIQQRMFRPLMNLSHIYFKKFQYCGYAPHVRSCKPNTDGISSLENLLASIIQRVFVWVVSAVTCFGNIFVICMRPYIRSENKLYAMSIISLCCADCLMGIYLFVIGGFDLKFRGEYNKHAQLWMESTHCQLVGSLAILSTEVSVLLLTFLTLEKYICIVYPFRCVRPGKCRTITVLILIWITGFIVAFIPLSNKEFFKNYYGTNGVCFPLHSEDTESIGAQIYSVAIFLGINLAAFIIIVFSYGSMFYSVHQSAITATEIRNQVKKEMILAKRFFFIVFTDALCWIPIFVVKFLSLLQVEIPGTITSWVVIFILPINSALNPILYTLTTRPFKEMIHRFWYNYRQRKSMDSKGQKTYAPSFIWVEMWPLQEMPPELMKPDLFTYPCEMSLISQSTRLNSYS
Type: cell-based
How it was run: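 HEK293 cells stably expressing human RXFP1 (1500 cells/well) in HBSS/20 mM HEPES/0.05% BSA/0.5 mM IBMX. Compounds were tested at 0.010 nM–50 μM final (2% DMSO) for 30 min at room temperature. cAMP was measured by HTRF and values derived by 4-parameter logistic fit.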

SMILES | EC50
COc1ccc(C2=NO[C@H]3COC[C@@H]23)cc1C(=O)N[C@H]1[C@@H](C(=O)N[C@H](C)C2(C)CC2)[C@H]2CC[C@@H]1/C2=C\C1CC(F)(F)C1 [compound 842] | 4.9 nM
COc1ccc(C2=NOC3COCC23)cc1C(=O)N[C@H]1[C@@H](C(=O)NCC2CCCC2)[C@H]2CC[C@@H]1/C2=C\C1CC1 (stereo partly shown) [compound 592] | 87.1 nM
COc1ccc(C2=NOC3CC(O)CC23)cc1C(=O)N[C@H]1[C@@H](C(=O)Nc2ccc(F)c(C(F)(F)F)c2)[C@H]2CC[C@@H]1/C2=C\C(F)(F)F (stereo partly shown) [compound 543] | 30.5 nM
COc1ccc(-c2ccc3c(C(=O)OCc4ccccc4)cnn3c2)cc1C(=O)N[C@@H]1C2CCC(/C2=C/C(F)(F)F)[C@@H]1C(=O)Nc1ccc(F)c(C(F)(F)F)c1 (stereo partly shown) [compound 316] | 81 nM
COc1ccc(C2=NOC3(CO)CCC23CO)cc1C(=O)N[C@H]1[C@@H](C(=O)Nc2ccc(F)c(C(F)(F)F)c2)[C@H]2CC[C@@H]1/C2=C\C1CC1 (single isomer, unassigned) [compound 623] | 169 nM
COc1c(F)cc(C2=NOC3CC(CO)CC23)cc1C(=O)N[C@H]1[C@@H](C(=O)Nc2ccc(F)c(C(F)(F)F)c2)[C@H]2CC[C@@H]1/C2=C\C1CC(F)(F)C1 (stereo partly shown) [compound 918] | 5.5 nM
COc1ccc(C2CCCN2)cc1C(=O)N[C@@H]1C2CCC(C2=CC2CC2)[C@@H]1C(=O)Nc1ccc(F)c(C(F)(F)F)c1 (stereo partly shown) [compound 720] | 3140 nM
COc1ccc(C2CCCN2C(=O)C(C)(C)O)cc1C(=O)N[C@@H]1C2CCC(C2=CC2CC2)[C@@H]1C(=O)Nc1ccc(F)c(C(F)(F)F)c1 (stereo partly shown) [compound 688] | 675 nM
COc1ccc(-c2cc([C@H](NC(=O)C3CCOCC3)C(F)(F)F)ccc2F)cc1C(=O)N[C@H]1[C@@H](C(=O)Nc2ccc(F)c(C(F)(F)F)c2)[C@H]2CC[C@@H]1/C2=C\C1CCCC1 [compound 955] | 0.1 nM
COc1ccc(-c2ccc(C(CC(=O)O)C(F)(F)F)cc2F)cc1C(=O)N[C@H]1[C@@H](C(=O)Nc2ccc(F)c(C(F)(F)F)c2)[C@H]2CC[C@@H]1/C2=C\C1CC1 (stereo partly shown) [compound 884] | 1 nM
COc1ccc(C2=NOC(C3(O)CCCCC3)C2)cc1C(=O)N[C@H]1[C@@H](C(=O)Nc2ccc(F)c(C(F)(F)F)c2)[C@H]2CC[C@@H]1/C2=C\C1CC1 (single isomer, unassigned) [compound 549] | 33 nM
COc1ccc(C2=NOC3COCC23)cc1C(=O)N[C@H]1[C@@H](C(=O)NC2CCC(C(F)(F)F)C2)[C@H]2CC[C@@H]1/C2=C\C1CC1 (stereo partly shown) [compound 649] | 250 nM
COc1ccc(C2=NO[C@@H]3CC[C@@H](O)[C@H]23)cc1C(=O)N[C@H]1[C@@H](C(=O)Nc2ccc(F)c(C(F)(F)F)c2)[C@H]2CC[C@@H]1/C2=C\C1CC1 (single isomer, unassigned) [compound 655] | 303 nM
COc1ccc(C2CCCN2CC(C)(C)O)cc1C(=O)N[C@@H]1C2CCC(C2=CC2CC2)[C@@H]1C(=O)Nc1ccc(F)c(C(F)(F)F)c1 (stereo partly shown) [compound 698] | 1010 nM
COc1ccc(-c2nn[nH]n2)cc1C(=O)N[C@@H]1C2CCC(C2=C(C)C)[C@@H]1C(=O)Nc1ccc(F)c(C(F)(F)F)c1 (stereo partly shown) [Example 144] | 2100 nM
COc1ccc(-c2ccc(C(=O)O)cc2)cc1C(=O)N[C@@H]1C2CCC(/C2=C/C2CC2)[C@@H]1C(=O)Nc1ccc(F)c(C(F)(F)F)c1 (stereo partly shown) [compound 167] | 16 nM
COc1ccc(N2CC(CN)CC2=O)cc1C(=O)N[C@H]1[C@@H](C(=O)Nc2ccc(F)c(C(F)(F)F)c2)[C@H]2CC[C@@H]1/C2=C\C1CC1 (stereo partly shown) [compound 712] | 1600 nM
COc1ccc(C2=NOC(CCO)C2)cc1C(=O)N[C@@H]1C2CCC(/C2=C/C2CCC2)[C@@H]1C(=O)Nc1ccc(F)c(C(F)(F)F)c1 (stereo partly shown) [compound 400] | 31 nM
COc1ccc(-c2cc(C(OC(=O)NC3CCC3)C(F)F)ccc2F)cc1C(=O)N[C@H]1[C@@H](C(=O)Nc2ccc(F)c(C(F)(F)F)c2)[C@H]2CC[C@@H]1/C2=C\C1CC1 (single isomer, unassigned) [Example 230] | 1 nM
COc1ccc(-c2ccc3[nH]cc(C(=O)O)c3c2)cc1C(=O)N[C@@H]1C2CCC(/C2=C/C(F)(F)F)[C@@H]1C(=O)Nc1ccc(F)c(C(F)(F)F)c1 (stereo partly shown) [compound 295] | 53 nM
COc1ccc(C2=NOC3CC(CO)CC23)cc1C(=O)N[C@H]1[C@@H](C(=O)N[C@H](C)C2(C)CC2)[C@H]2CC[C@@H]1/C2=C\C1CC1 (stereo partly shown) [compound 766] | 2.7 nM

SMILES | EC50
CCCC#C/C=C1\C2CCC1[C@H](C(=O)Nc1ccc(F)c(C(F)(F)F)c1)[C@@H]2NC(=O)c1cc(F)c(F)cc1OC (stereo partly shown) [compound 135] | 370 nM
COc1ccc(C2=NOC3COCC23)cc1C(=O)N[C@H]1[C@@H](C(=O)Nc2ccccc2C)[C@H]2CC[C@@H]1/C2=C\C1CC1 (stereo partly shown) [compound 596] | 102 nM
COc1ccc(-c2cc([C@H](OC(=O)NC3CCC3)C(F)(F)F)ccc2F)cc1C(=O)N[C@@H]1C2CCC(/C2=C/C2CCCC2)[C@@H]1C(=O)Nc1ccc(F)c(C(F)(F)F)c1 (stereo partly shown) [compound 922] | 2.2 nM
COc1ccc(C2=NOC(C(=O)O)C2)cc1C(=O)N[C@@H]1C2CCC(/C2=C/C2CC2)[C@@H]1C(=O)Nc1ccc(F)c(C(F)(F)F)c1 (single isomer, unassigned) [Example 385] | 8 nM
COc1ccc(C2=NO[C@H]3C[C@H](CO)C[C@@H]23)cc1C(=O)N[C@H]1[C@@H](C(=O)N[C@H](C)C2(C)CC2)[C@H]2CC[C@@H]1/C2=C\CCC(F)(F)F [compound 812] | 0.8 nM
COc1ccc(-c2cc(C(=O)O)ccc2F)cc1C(=O)N[C@@H]1C2CCC(/C2=C/C2CC2)[C@@H]1C(=O)Nc1ccc(F)c(F)c1F (stereo partly shown) [compound 305] | 1380 nM
CCOC(=O)/C=C1\C2CCC1[C@H](C(=O)Nc1ccc(F)c(C(F)(F)F)c1)[C@@H]2NC(=O)c1cc(F)c(F)cc1OC (stereo partly shown) [compound 7] | 270 nM
COc1ccc(-n2cc(C(NC(=O)C3CCOCC3)C(=O)O)cn2)cc1C(=O)N[C@@H]1C2CCC(/C2=C/C(F)(F)F)[C@@H]1C(=O)Nc1ccc(F)c(C(F)(F)F)c1 (stereo partly shown) [compound 347] | 62 nM
C=C/C=C1\C2CCC1[C@H](C(=O)Nc1ccc(F)c(C(F)(F)F)c1)[C@@H]2NC(=O)c1cc(-c2cc(C(N)=O)ccc2F)ccc1OC (stereo partly shown) [compound 163] | 13 nM
CC12CC(NC(=O)[C@@H]3[C@H](NC(=O)c4cc(C5=NOC6CC(CO)CC56)cc(F)c4OCC4CC4)[C@@H]4CC[C@H]3/C4=C/C3CC3)(C1)C2 (stereo partly shown) [compound 764] | 2.3 nM
COc1ccc(C2=NOC3CC(CO)CC23)cc1C(=O)N[C@H]1[C@@H](C(=O)Nc2ccc(F)c(C(F)(F)F)c2)[C@H]2CC[C@@H]1/C2=C\C1CCCC1 (stereo partly shown) [compound 445] | 0.5 nM
CCCOc1c(F)cc(C2=NOC3CC(CO)CC23)cc1C(=O)N[C@H]1[C@@H](C(=O)Nc2ccc(F)c(C(F)(F)F)c2)[C@H]2CC[C@@H]1/C2=C\C1CC1 (stereo partly shown) [compound 782] | 3.2 nM
COc1cc(F)c(F)cc1C(=O)N[C@@H]1C2CCC(/C2=C/C(C)(C)O)[C@@H]1C(=O)Nc1ccc(F)c(C(F)(F)F)c1 (stereo partly shown) [Example 65] | 2000 nM
COc1ccc(C2=NOC3CC(C(=O)O)CC23)cc1C(=O)N[C@H]1[C@@H](C(=O)Nc2ccc(F)c(C(F)(F)F)c2)[C@H]2CC[C@@H]1/C2=C\C1CC1 (stereo partly shown) [compound 851] | 2.8 nM
COc1ccc(C2=NOC3COCC23)cc1C(=O)N[C@H]1[C@@H](C(=O)NCc2ccccc2OC(F)F)[C@H]2CC[C@@H]1/C2=C\C1CC1 (stereo partly shown) [compound 624] | 169 nM
COc1ccc(C2=NOC(CC(=O)O)C2)cc1C(=O)N[C@@H]1C2CCC(/C2=C/C2CC2)[C@@H]1C(=O)Nc1ccc(F)c(C(F)(F)F)c1 (stereo partly shown) [compound 391] | 49 nM
COc1ccc(C2=NOC(CC(C)(C)O)C2)cc1C(=O)N[C@H]1[C@@H](C(=O)NCC(C)(C)C)[C@H]2CC[C@@H]1/C2=C\C1CC1 (stereo partly shown) [compound 660] | 350 nM
COc1ccc(-c2cc(C(OC(=O)Nc3ccc(Cl)cc3)C(F)(F)F)ccc2F)cc1C(=O)N[C@@H]1C2CCC(/C2=C/C2CC2)[C@@H]1C(=O)Nc1ccc(F)c(C(F)(F)F)c1 (stereo partly shown) [compound 227] | 3 nM
COc1cc(F)c(F)cc1C(=O)N[C@@H]1C2CCC(/C2=C2\CCc3ccccc32)[C@@H]1C(=O)Nc1ccc(F)c(C(F)(F)F)c1 (stereo partly shown) [compound 72] | 250 nM
COc1ccc(-c2cc(C(CC(=O)O)C(F)(F)F)ccc2F)cc1C(=O)N[C@H]1[C@@H](C(=O)Nc2ccc(F)c(C(F)(F)F)c2)[C@H]2CC[C@@H]1/C2=C\C1CC1 (stereo partly shown) [compound 873] | 3.3 nM
COc1ccc(-c2ccc(C(=O)O)cc2F)cc1C(=O)N[C@H]1[C@@H](C(=O)Nc2ccc(F)c(C(F)(F)F)c2)[C@H]2CC[C@@H]1C2=C(C)C [compound 84] | 110 nM

Same assay, conditions: cAMP hRXFP1 HEK293 Assay EC50, HEK293 cells stably expressing human RXFP1, 30 min at room temperature

SMILES | EC50
COc1ccc(-c2ccc(C(=O)O)cc2)cc1C(=O)N[C@H]1[C@@H](C(=O)Nc2ccc(F)c(C(F)(F)F)c2)[C@H]2CC[C@@H]1C2=C(C)C [compound 83] | 66 nM
